Assay results as given in paper PMC11530130, “Peripherally restricted PICK1 inhibitor mPD5 ameliorates pain behaviors in murine inflammatory and neuropathic pain models” (JCI Insight, 2024).
Values joined by “and” are separate entries in the source; they are usually repeats but may differ in a detail not shown here. Equal values may be shown once.

What was measured:
[1] = test system: naive mice; test: Single exposure place preference (sePP), naive mice; type: in vivo, mouse
Description: On days 6-8, the escape hole was moved
90 degrees, and all mice went through the second bout of training. On day nine, a second probe trial was performed testing the reversal learning of the mice.
Cancer induced bone pain was induced as described in the “Induction of cancer induced bone pain (CIBP model)"-section. For the assessment of limb use, all mice from one cage were placed in an empty transparent plastic box and left for ten min to habituate. One mouse at a time was moved by tunnel handling or scooping to an identical plastic box for the limb use test. […]
gait, 3 Insignificant limping, 2 Significant limping and shift in bodyweight towards the healthy limb 1 Significant limping and partial lack of use of ipsilateral leg 0 Total lack of use of ipsilateral leg. A score of 0 was used as a humane endpoint. Urine and faeces were cleaned from the plastic box with a dry paper towel between mice from the same cage, and a new plastic box was used for mice from different cages. The limb use test was video filmed for later […]
Assessment of static weight bearing. […]
Initial perception of the drugs was measured by single exposure place preference experiments performed in an elongated three compartment apparatus (67.5 cm x 24 cm) with a biased design of different floor textures and wall patterns and a neutral zone in the middle. […]

[2] = test system: naive mice; test: Hot water tail immersion (tail-flick) test; type: in vivo, mouse; details: for tail-flick time, individual mice: water of 49°C, hr 1, male and female
Description: To compare pain-relevant vocalizations, only short and constant USVs of 37 kHz were counted […]
Tail-Flick immersion test
Naïve wildtype male and female mice (10 weeks of age) were habituated to handling and experimental set up for one week prior to data collection. On the day of data collection, a baseline measurement was performed prior to injection of compounds. One measurement consisted of immersion of 2/3rds of the tail in water (49 °C) for maximum ten seconds, three times with an interval of ten seconds between each measurement using the mean of the three measurements. After baseline, mice were injected s.c. with mPD5 10 μmol/kg mPD5, 10 mg/kg morphine (RH Pharmacy, Denmark, Vnr. 475249), or sterile PBS one hour before undergoing the tail-flick hot water immersion assay again.
Mice were pretreated with 10 μmol/kg mPD5, 10 mg/kg morphine (RH Pharmacy, Denmark, Vnr. 475249), or PBS 45 min before habituation to observation container (glass cylinder surrounded by mirrors on 2 sides) for 15 min. Mice then received an intraplantar injection of 20 µl capsaicin (1.6 ug/paw) (sigma CAS Number:404-86-4, diluted with 1:1:8 solution of tween-20, 70% ethanol, and MilliQ water) in one hind paw and were reintroduced to the observation container. Mice were recorded for three min after i.pl. injection with capsaicin and euthanized the same day. Mice were scored manually for the amount of time spent paw licking within three min after capsaicin administration.
Mice were 10 weeks old at the beginning of the experiment and acclimatized to the animal facility for two weeks after arrival. Male mice were randomized into two groups (n = 8/group) and weighed and injected s.c. once daily (between 3 pm and 4 pm) for 14 days with sterile PBS or 10 μmol/kg mPD5 (diluted in sterile PBS and pH adjusted to 7.4). After 14 days of dosing, the males were paired with female mice in fresh cages, and the number of pubs counted for 35 days (males were removed from the breeding cages after 14 days). Following the 14 days mating period, males were sacrificed by cervical dislocation caudae epidymidis were removed and weighed. Caudae epidymidis were cut into smaller pieces in 2 mL PBS (37 °C) and incubated (37 °C, 5% CO2) for 15 min. Following incubation, the mix was swirled gently, and 0.5 mL of the liquid was transferred to room tempered PBS to achieve a final volume of 1 mL.
Subsequently, sperm count was determined by transferring 50 µL of the sample to a hemocytometer, and each sample was determined in duplicate by an experimenter blinded to drug treatment. Following criteria were assessed: mobility (forward and circular), local tail mobility and total number. Females were weighed on a regular basis from removal of the males […]
Unless otherwise stated, all data were analysed using GraphPad Prism 9.4.1. and presented as mean +-SEM with the significance level set to p < 0.05. For locomotion and elevated plus maze, Ethovision XT 13 (Noldus) was used to track the distance travelled by each animal. For within group analysis (i.e., von Frey experiments), two-way ANOVA followed by Dunnett’s post hoc test was used. For between group analysis of multiple time points (i.e., locomotion experiments), two-way ANOVA was used without post hoc test due to lack of treatment significance in the ANOVA test. For the limb use experiment, data pre versus post treatment was analysed with a Kruskal Wallis test due to the non-parametric nature of the data. […]

Structure (SMILES) | time spent in the paired compartment, individual mice ([1]; naive mice conditioned with 30 μmol/kg) | preference compared to PBS (intrinsic rewarding properties, sePP) ([1]; naive mice, 30 μmol/kg) | effect on tail-flick latency compared with baseline ([2]; naive mice, both sexes, s.c. 10 μmol/kg) | tail-flick time, individual mice ([2]; 10 umol/kg, female mice) | tail-flick time, individual mice ([2]; 10 umol/kg, male mice) | tail-flick time, individual mice ([2]; 10 mg/kg, female mice) | tail-flick time, individual mice ([2]; 10 mg/kg, male mice)
CCCCCCCCCCCCCC(=O)N(CCOCCOCCC(=O)N[C@@H](Cc1c[nH]cn1)C(=O)N[C@@H](Cc1c[nH]c2ccccc12)C(=O)N[C@@H](CC(C)C)C(=O)N[C@@H](CCCCN)C(=O)N[C@H](C(=O)O)C(C)C)CCOCCOCCC(=O)N[C@@H](Cc1c[nH]cn1)C(=O)N[C@@H](Cc1c[nH]c2ccccc12)C(=O)N[C@@H](CC(C)C)C(=O)N[C@@H](CCCCN)C(=O)N[C@H](C(=O)O)C(C)C [mPD5, myristoyl-NPEG4-(HWLKV)2] | 310.53 and 374.063 and 737.926 and 573.794 and 360.996 and 424.662 and 697.46 | did not show any preference | no effect on tail-flick latency | 3 and 4 (2×) and 5 | 3 (2×) and 2 and 4 |  | 
CN1CC[C@]23c4c5ccc(O)c4O[C@H]2[C@@H](O)C=C[C@H]3[C@H]1C5 [morphine] |  |  |  |  |  | 10 | 10 (2×) and 6 and 7
